Where a name gives a salt, the structure may show the parent alone.
Assays:
[1] = tested on: MDA-MB-435; test: Cell-based antiproliferative (MTT) assay, MDA-MB-435 breast carcinoma line; conditions: Homo sapiens, MDA-MB-435, 120 h; 5 days post addition of test compound; mostly one experiment, average where repeated; read-out: MDA-MB435 IC50
Procedure: The estrogen receptor negative epithelial breast carcinoma line (MDA-MB-435) was purchased from American Type Cell Culture Collection (ATCC; Rockville, Md.) and was grown in the medium recommended by ATCC. For analysis of the effect of the test compounds on growth of these cells, the cells were plated at 2000 cells per well in a 96-well tissue culture plate, and were incubated overnight at 37° C. with 5% CO2. The next day, the test compounds were dissolved in 100% dimethyl sulfoxide (DMSO) to yield a 10 mM stock solution. Each compound was diluted with sterile medium to 1 mM in a sufficient quantity to yield a final concentration of 120 μM. The compounds were then serially diluted in medium with 1.2% DMSO. One-fourth final volume of the diluted compounds was transferred to 96 well plates. Test compounds were assayed in duplicate. DMSO was added to a row of "control cells" such that the final concentration of DMSO in each well was 0.3%. Wells to which no cells were added served as the "blank." Wells to which no inhibitor was added served as "no inhibitor control". The plates were returned to the incubator, and 5 days post addition of test compound, were analyzed as described below. […] MTT) was added to each well to yield a final concentration of 1 mg/mL. The plates were then incubated at 37° C. for 3 hours. The plates were centrifuged at 1000 rpm for 5 minutes prior to aspiration of the MTT-containing medium. The MTT-containing medium was then removed and 100 μL 100% ethanol was added to each well to dissolve the resulting formazan metabolite. To ensure complete dissolution, plates were shaken for 15 minutes at room temperature. Absorbencies were read in a microtiter plate reader (Molecular Dynamics) at a wavelength of 570 nm with a 650 nm reference. Percent inhibition was calculated by subtracting the absorbance of the blank (no cell) wells from all wells, then subtracting the division of the average absorbance of each test duplicate by the average of the controls from 1.00. Inhibitory concentrations (IC50) were determined from the linear regression of a plot of the logarithm of the concentration versus the percent inhibition.

[2] = biological target: T1, Cyclin E/CDK2 (Homo sapiens, UniProt P24941); test: CDK2 FlashPlate Assay (inhibition of Rb phosphorylation by Cyclin E/CDK2); type: biochemical; conditions: for IC50: Table IA, recombinant human Cyclin E/CDK2, Rb substrate, 25 minutes room temperature
T1 construct: made in house; host or cells: insect cells

[3] = tested on: SW480; test: Cell-based antiproliferative (MTT) assay, SW480 colon carcinoma line; conditions: Homo sapiens, SW480, 96 h; 4 days post addition of test compound
Procedure: The estrogen receptor negative epithelial breast carcinoma line (MDA-MB-435) was purchased from American Type Cell Culture Collection (ATCC; Rockville, Md.) and was grown in the medium recommended by ATCC. For analysis of the effect of the test compounds on growth of these cells, the cells were plated at 2000 cells per well in a 96-well tissue culture plate, and were incubated overnight at 37° C. with 5% CO2. The next day, the test compounds were dissolved in 100% dimethyl sulfoxide (DMSO) to yield a 10 mM stock solution. Each compound was diluted with sterile medium to 1 mM in a sufficient quantity to yield a final concentration of 120 μM. The compounds were then serially diluted in medium with 1.2% DMSO. One-fourth final volume of the diluted compounds was transferred to 96 well plates. Test compounds were assayed in duplicate. DMSO was added to a row of "control cells" such that the final concentration of DMSO in each well was 0.3%. Wells to which no cells were added served as the "blank." Wells to which no inhibitor was added served as "no inhibitor control". The plates were returned to the incubator, and 5 days post addition of test compound, were analyzed as described below.
3-(4,5-Dimethylthiazole-2-yl)-2,5-diphenyl-2H-tetrazolium bromide (thiazolyl blue; MTT) was added to each well to yield a final concentration of 1 mg/mL. The plates were then incubated at 37° C. for 3 hours. The plates were centrifuged at 1000 rpm for 5 minutes prior to aspiration of the MTT-containing medium. The MTT-containing medium was then removed and 100 μL 100% ethanol was added to each well to dissolve the resulting formazan metabolite. To ensure complete dissolution, plates were shaken for 15 minutes at room temperature. Absorbencies were read in a microtiter plate reader (Molecular Dynamics) at a wavelength of 570 nm with a 650 nm reference. Percent inhibition was calculated by subtracting the absorbance of the blank (no cell) wells from all wells, then subtracting the division of the average absorbance of each test duplicate by the average of the controls from 1.00. Inhibitory concentrations (IC50) were determined from the linear regression of a plot of the logarithm of the concentration versus the percent inhibition.
The colon carcinoma line SW480 also was obtained from the ATCC and was tested according to the same protocol provided above with the following modification: cell line SW480 was plated at 1000 cells per well and analyzed at 4 days post addition of test compound.

Compound | IC50 [1] [µM] | IC50 [2] [µM] | IC50 [3] [µM] | inhibition at 1 µM ([2]; Table IB, concentration ≤1.0 μM) [%]
Cc1nc[nH]c1/C=C1\C(=O)Nc2ccc(F)c(C#CCN3CCOCC3)c21 [XX, (Z)-1,3-Dihydro-5-fluoro-3-[(4-methyl-1H-imidazol-5-yl)methylene]-4-[3-(4-morpholinyl)-1-propynyl]-2H-indol-2-one] | < 3.5 | < 4 |  | 
CCOC(=O)C(CC#Cc1c(F)ccc2c1/C(=C/c1[nH]cnc1C)C(=O)N2)NC(C)=O (racemic) [AAA, rac-(Z)-2-(Acetylamino)-5-[5-fluoro-2,3,dihydro-3-[(4-methyl-1H-imidazol-5-yl)methylene]-2-oxo-1H-indol-4-yl]-4-pentynoic acid ethyl ester] | < 3.5 | < 4 |  | 
CCC(O)C#Cc1c([N+](=O)[O-])ccc2c1/C(=C/c1[nH]cnc1C)C(=O)N2 (racemic) [PP, rac-(Z)-1,3-Dihydro-4-(3-hydroxy-1-pentynyl)-3-[(4-methyl-1H-imidazol-5-yl)methylene]-5-nitro-2H-indol-2-one] | < 3.5 | < 4 | < 1 | 
Cc1nc[nH]c1/C=C1\C(=O)Nc2ccc(F)c(C#CC(C)(C)N)c21 [VV, (Z)-4-[3-Amino-3-methyl-1-butynyl]-1,3-dihydro-5-fluoro-3-[(4-methyl-1H-imidazol-5-yl)methylene]-2H-indol-2-one] | < 3.5 | < 4 |  | 
CNCC#Cc1c(F)ccc2c1/C(=C/c1[nH]cnc1C)C(=O)N2 [RR, (Z)-1,3-Dihydro-5-fluoro-4-[3-(N-methylamino)-1-propynyl]-3-[(4-methyl-1H-imidazol-5-yl)methylene]-2H-indol-2-one] | < 3.5 | < 4 | < 1 | 
Cc1nc[nH]c1/C=C1\C(=O)Nc2ccc(F)c(C#CCO)c21 [QQ, (Z)-1,3-Dihydro-5-fluoro-4-(3-hydroxy-1-propynyl)-3-[(4-methyl-1H-imidazol-5-yl)methylene]-2H-indol-2-one, trifluoroacetate salt] | < 3.5 | < 4 |  | 
CCN(CC)CC#Cc1c(F)ccc2c1/C(=C/c1[nH]cnc1C)C(=O)N2 [Compound BBB, (Z)-4-[3-(N,N-Diethylamino)-1-propynyl]-1,3-dihydro-5-fluoro-3-[(4-methyl-1H-imidazol-5-yl)methylene]-2H-indol-2-one] | < 3.5 | < 4 |  | 
COC(=O)NCC#Cc1c(F)ccc2c1/C(=C/c1[nH]cnc1C)C(=O)N2 [YY, (Z)-[3-[2,3-Dihydro-5-fluoro-3-[(4-methyl-1H-imidazol-5-yl)methylene]-2-oxo-1H-indol-4-yl]-2-propynyl]carbamic acid methyl ester] | < 3.5 |  |  | > 90
Cc1nc[nH]c1/C=C1\C(=O)Nc2ccc(F)c(C#CCN(C)C)c21 [UU, (Z)-1,3-Dihydro-4-[3-(N,N-dimethylamino)-1-propynyl]-5-fluoro-3-[(4-methyl-1H-imidazol-5-yl)methylene]-2H-indol-2-one] | < 3.5 | < 4 |  | 
Cc1nc[nH]c1/C=C1\C(=O)Nc2ccc(F)c(C#CCC(C)O)c21 (racemic) [TT, rac-(Z)-1,3-Dihydro-5-fluoro-4-(4-hydroxy-1-pentynyl)-3-[(4-methyl-1H-imidazol-5-yl)methylene]-2H-indol-2-one, trifluoroacetate salt] | < 3.5 | < 4 |  | 
CCC(O)C#Cc1c(F)ccc2c1/C(=C/c1[nH]cnc1C)C(=O)N2 (racemic) [OO, rac-(Z)-1,3-Dihydro-5-fluoro-4-(3-hydroxy-1-pentynyl)-3-[(4-methyl-1H-imidazol-5-yl)methylene]-2H-indol-2-one] | < 3.5 | < 4 | < 1 | 
Cc1nc[nH]c1/C=C1\C(=O)Nc2ccc(F)c(C#CCOC(N)=O)c21 [WW, (Z)-Carbamic acid 3-[2,3-dihydro-3-[(4-methyl-1H-imidazol-5-yl)methylene]-5-fluoro-2-oxo-1H-indol-4-yl]-2-propynyl ester] | < 3.5 | < 4 |  | 
CCC(N)(C#Cc1c(F)ccc2c1/C(=C/c1[nH]cnc1C)C(=O)N2)CC [CCC, (Z)-4-[3-Amino-3-ethyl-1-pentynyl]-1,3-dihydro-5-fluoro-3-[(4-methyl-1H-imidazol-5-yl)methylene]-2H-indol-2-one] |  |  | < 1 | 
